Experimental findings from paper PMC13110364, “Design, Synthesis, and Biological Evaluation of Novel Triazine‐Based Dual Histone Deacetylase/phosphatidylinositol 3‐kinase Inhibitors for Breast Cancer Therapy” (Chemmedchem, 2026) are described below.

In one assay the target is HDAC3 (Homo sapiens, UniProt O15379). The assay can be described thus: Selectivity profile, single dose 0.5 µM, HDAC3. In kind it is biochemical. Particulars: remaining enzyme activity; single‐dose duplicate mode at 0.5 μM; read-out: Enzyme % activity (relative to DMSO controls) at 0.5 µM, HDAC3. The procedure:
(§1) The inhibitory profiles of 5b and 5f were evaluated against selected HDAC isoforms (HDAC1, HDAC3, HDAC4, HDAC8, and HDAC10) and PI3K isoforms (PI3Kδ, PI3Kγ, and PI3Kβ) at a fixed concentration of 0.5 µM (Table 3). […] While we explored the phenyl ring in the linker region to achieve selectivity for the HDAC6 isoform, we still observed HDAC class I inhibition. […] It is important to highlight that PI3Kδ is mainly expressed in hematopoietic system and plays roles in leukocyte signaling, T‐cell activation, and immune cell trafficking. FDA‐approved drug idelalisib is a selective PI3Kδ inhibitor in B‐cell malignancies; however, this drug is also related to disruption of the immune system, which can lead to immune manifestations, such as infections. In addition, while isoform‐selective PI3K inhibitors are well tolerated, pan‐inhibition of PI3K is less expected that compensatory mechanisms by the action of other PI3Ks can take place. Thus, a more balanced profile of PI3K inhibition can lead to an overall lack of toxicity of PI3K inhibitors.

The target in another assay is HDAC10 (Homo sapiens, UniProt Q969S8). Kind of assay: Selectivity profile, single dose 0.5 µM, HDAC10. Particulars: remaining enzyme activity; single‐dose duplicate mode at 0.5 μM; read-out: Enzyme % activity (relative to DMSO controls) at 0.5 µM, HDAC10. In kind it is biochemical. The procedure:
as §1

The target in another assay is PI3Kβ (Homo sapiens, UniProt P42338). The assay can be described thus: Selectivity profile, single dose 0.5 µM, PI3Kβ. In kind it is biochemical. The conditions noted are these: remaining enzyme activity; single‐dose duplicate mode at 0.5 μM; read-out: Enzyme % activity (relative to DMSO controls) at 0.5 µM, PI3Kβ. The procedure:
as §1

Another assay concerns the target PI3Kγ (Homo sapiens, UniProt P48736). The assay can be described thus: Selectivity profile, single dose 0.5 µM, PI3Kγ. The assay is classed as biochemical. Particulars: remaining enzyme activity; single‐dose duplicate mode at 0.5 μM; read-out: Enzyme % activity (relative to DMSO controls) at 0.5 µM, PI3Kγ. The method, then: as §1
In assay [1] the test system is HDAC6 (acetylated α‐tubulin). Kind of assay: Western blot, acetylated α-tubulin in treated cells. In kind it is cell-based. The conditions noted are these: LY2, JIMT1, MDA‐MB‐231 cells, 24 h; seen at 3 µM, further increasing at 10 µM. The method, then: (§2) FIGURE 4 Cell‐based evaluation of compounds 5a– 5f. Dose‐dependent effects of compound treatment (5a‐5f) on breast cancer cell viability across JIMT1 (A), MDA‐MB‐231 (B), and LY2 (C). Cell‐based evaluation of HDAC and PI3K inhibition by compounds 5b and 5f by Western blot. JIMT1 cells were treated for 24 h with compounds 5b (D) and 5f (E) at the concentrations of 1, 3, and 10 µM or with vehicle control (0.1% DMSO). Protein expression levels were analyzed by western blot using antibodies against acetylated α‐tubulin, acetyl H3 (H3K9Ac and H3K14Ac), phospho‐AKT (p‐AKT), and total AKT. GAPDH served as a loading control.
(§3) To investigate if 5b and 5f were acting as multitarget inhibitors, we evaluated the modulation of HDAC6 and PI3K signaling pathways by western blot analysis (Figure 4D,E). […]
(§4) Total protein samples were extracted from treated cells using a lysis buffer containing 0.1% IGEPAL CA‐630 (I8896, Merck), 0.5% deoxycholic acid (D2510, Merck), and 0.1% SDS (L3771, Merck), freshly supplemented with protease and phosphatase inhibitor cocktail (78442, Thermo Fisher Scientific). Protein concentrations were quantified using the Pierce BCA Protein Assay Kit (23227, Thermo Fisher Scientific) according to the manufacturer's instructions. […] Chemiluminescence signals were detected using the Amersham Imager 680 Imaging System. […]
(A western blot detects proteins with antibodies after separation by electrophoresis.)

The next assay relates to class I HDAC (acetyl H3). The assay can be described thus: Western blot, acetyl H3 in treated cells. The conditions noted are these: LY2, JIMT1, MDA‐MB‐231 cells, 24 h; seen at 10 µM. The assay is classed as cell-based. The procedure: as §2, §3, §4

Chain of HDAC10 (Q969S8 whole entry): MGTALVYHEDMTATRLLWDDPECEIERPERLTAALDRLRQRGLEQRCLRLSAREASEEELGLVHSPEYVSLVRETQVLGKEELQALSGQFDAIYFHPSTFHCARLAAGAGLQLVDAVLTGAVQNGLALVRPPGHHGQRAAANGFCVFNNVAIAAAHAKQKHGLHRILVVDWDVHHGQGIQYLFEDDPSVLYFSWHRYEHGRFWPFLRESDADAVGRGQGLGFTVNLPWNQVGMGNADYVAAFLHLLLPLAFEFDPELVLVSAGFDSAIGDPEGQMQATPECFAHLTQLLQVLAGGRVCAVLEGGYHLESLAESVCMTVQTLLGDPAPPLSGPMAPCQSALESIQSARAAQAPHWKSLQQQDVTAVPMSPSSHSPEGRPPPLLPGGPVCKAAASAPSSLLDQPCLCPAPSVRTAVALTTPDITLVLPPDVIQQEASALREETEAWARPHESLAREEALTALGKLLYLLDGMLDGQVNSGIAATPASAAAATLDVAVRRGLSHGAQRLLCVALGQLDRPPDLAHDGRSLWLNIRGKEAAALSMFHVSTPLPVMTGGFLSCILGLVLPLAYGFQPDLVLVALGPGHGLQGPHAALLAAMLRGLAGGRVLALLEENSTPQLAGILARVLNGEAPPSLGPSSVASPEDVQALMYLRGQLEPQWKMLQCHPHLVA
Chain of HDAC3 (O15379 whole entry, canonical isoform): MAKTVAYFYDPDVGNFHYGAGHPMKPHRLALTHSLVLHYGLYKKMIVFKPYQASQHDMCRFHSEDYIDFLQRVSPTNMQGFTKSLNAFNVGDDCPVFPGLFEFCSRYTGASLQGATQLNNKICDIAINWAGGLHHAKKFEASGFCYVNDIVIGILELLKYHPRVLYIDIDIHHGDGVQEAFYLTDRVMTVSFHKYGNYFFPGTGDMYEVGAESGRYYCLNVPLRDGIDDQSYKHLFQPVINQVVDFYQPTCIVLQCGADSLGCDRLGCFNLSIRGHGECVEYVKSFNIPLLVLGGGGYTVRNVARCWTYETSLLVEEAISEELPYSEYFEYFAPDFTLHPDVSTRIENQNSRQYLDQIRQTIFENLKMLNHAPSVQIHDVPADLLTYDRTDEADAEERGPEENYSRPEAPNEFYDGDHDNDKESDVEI
Chain of HDAC3 (Q9Y618 395-489 partner limits assumed): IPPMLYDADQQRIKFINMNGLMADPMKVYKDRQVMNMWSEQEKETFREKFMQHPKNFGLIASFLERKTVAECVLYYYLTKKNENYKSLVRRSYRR
Chain of PI3Kβ (P42338 whole entry): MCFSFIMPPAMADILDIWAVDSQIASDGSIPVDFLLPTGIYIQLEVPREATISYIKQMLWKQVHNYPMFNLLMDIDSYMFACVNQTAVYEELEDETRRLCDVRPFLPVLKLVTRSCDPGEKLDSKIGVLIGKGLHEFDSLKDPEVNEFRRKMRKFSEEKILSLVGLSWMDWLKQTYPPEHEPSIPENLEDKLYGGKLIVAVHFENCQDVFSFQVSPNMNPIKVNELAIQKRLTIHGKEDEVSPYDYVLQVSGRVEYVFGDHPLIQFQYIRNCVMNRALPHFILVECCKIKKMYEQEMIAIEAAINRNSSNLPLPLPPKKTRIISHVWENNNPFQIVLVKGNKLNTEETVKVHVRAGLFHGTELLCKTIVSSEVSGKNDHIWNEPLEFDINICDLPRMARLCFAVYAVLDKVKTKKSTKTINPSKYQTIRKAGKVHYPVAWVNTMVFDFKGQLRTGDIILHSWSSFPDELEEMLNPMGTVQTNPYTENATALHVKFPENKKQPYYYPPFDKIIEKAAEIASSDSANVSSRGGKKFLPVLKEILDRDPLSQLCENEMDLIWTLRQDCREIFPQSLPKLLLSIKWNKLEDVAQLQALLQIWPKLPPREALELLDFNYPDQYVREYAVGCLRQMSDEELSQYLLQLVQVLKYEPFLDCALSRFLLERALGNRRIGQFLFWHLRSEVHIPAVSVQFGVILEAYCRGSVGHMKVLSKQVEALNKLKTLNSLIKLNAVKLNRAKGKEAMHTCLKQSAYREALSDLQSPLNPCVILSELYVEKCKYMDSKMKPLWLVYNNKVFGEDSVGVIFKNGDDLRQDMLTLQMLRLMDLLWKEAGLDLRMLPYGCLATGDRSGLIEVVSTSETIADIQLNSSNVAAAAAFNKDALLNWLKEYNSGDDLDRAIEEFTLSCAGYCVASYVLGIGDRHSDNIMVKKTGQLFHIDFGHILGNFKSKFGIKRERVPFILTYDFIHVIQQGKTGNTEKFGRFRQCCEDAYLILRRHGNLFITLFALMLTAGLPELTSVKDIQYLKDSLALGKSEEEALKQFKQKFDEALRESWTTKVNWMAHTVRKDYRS
Chain of PI3Kβ (P27986 whole entry partner): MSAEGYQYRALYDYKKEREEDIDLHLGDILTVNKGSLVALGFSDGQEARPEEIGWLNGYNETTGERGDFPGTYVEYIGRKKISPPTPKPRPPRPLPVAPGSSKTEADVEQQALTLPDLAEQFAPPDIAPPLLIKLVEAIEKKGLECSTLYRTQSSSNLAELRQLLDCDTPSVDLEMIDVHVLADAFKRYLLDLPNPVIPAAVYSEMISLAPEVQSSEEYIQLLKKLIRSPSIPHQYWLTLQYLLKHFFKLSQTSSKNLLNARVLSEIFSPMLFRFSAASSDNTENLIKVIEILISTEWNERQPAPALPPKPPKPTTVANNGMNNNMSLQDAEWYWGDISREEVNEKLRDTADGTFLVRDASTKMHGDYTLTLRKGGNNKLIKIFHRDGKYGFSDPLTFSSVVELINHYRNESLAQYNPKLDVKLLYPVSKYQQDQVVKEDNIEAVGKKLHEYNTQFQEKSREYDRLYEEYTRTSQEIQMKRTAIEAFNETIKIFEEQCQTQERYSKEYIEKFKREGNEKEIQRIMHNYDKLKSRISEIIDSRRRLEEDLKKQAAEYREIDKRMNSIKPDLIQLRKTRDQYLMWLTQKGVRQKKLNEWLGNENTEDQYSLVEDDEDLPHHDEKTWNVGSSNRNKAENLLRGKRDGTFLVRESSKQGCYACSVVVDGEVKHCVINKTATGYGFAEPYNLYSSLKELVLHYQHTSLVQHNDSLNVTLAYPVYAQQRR
Chain of PI3Kγ (P48736 whole entry): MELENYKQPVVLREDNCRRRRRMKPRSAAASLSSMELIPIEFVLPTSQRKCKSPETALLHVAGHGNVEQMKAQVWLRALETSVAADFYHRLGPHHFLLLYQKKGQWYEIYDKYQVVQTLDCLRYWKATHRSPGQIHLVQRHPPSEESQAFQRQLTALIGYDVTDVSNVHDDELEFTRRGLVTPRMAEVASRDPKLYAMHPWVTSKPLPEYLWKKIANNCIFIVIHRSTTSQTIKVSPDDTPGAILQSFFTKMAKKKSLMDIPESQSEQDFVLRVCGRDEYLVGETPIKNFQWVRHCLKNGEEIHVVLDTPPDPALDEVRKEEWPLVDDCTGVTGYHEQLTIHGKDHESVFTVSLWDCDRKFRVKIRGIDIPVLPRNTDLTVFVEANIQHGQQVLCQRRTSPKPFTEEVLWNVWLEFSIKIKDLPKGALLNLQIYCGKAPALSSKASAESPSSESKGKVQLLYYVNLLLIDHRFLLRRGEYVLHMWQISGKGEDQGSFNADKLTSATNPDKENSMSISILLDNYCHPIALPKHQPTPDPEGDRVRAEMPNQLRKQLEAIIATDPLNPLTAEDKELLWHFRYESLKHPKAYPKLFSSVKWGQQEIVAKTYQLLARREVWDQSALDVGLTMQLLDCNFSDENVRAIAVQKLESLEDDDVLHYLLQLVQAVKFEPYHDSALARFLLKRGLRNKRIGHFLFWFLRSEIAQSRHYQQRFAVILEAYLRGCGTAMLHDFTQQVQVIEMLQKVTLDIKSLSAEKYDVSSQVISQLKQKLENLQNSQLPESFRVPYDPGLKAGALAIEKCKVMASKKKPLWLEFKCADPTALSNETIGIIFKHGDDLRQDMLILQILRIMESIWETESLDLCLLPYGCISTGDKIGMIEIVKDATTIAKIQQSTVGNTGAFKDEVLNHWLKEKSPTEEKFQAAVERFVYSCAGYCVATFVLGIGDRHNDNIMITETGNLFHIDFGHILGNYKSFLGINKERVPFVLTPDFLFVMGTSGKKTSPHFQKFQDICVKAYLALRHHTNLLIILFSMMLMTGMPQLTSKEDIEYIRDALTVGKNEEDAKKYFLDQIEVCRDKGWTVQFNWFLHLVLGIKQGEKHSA

For the compound `O=C(NO)c1ccc(CNc2nc(-c3cccc(O)c3)nc(N3CCOCC3)n2)cc1` [Compound 5b, N‐Hydroxy‐4‐(((4‐(3‐Hydroxyphenyl)‐6‐Morpholino‐1,3,5‐Triazin‐2‐yl)Amino)Methyl)Benzamide], the remaining activity at 0.5 µM is 22.6% on HDAC3, 15.9% on HDAC10, 40.1% at PI3Kβ and 29.2% at PI3Kγ. Further, the “Acetylated α‐tubulin level, western blot” value in assay [1] is listed as “accumulation of acetylated α‐tubulin”. The “Acetylation of H3, western blot” value in the assay on class I HDAC (acetyl H3) is listed as “increased levels of acetylation of H3”.

Regarding `COc1ccc(-c2nc(NCc3ccc(C(=O)NO)cc3)nc(N3CCOCC3)n2)cn1` [Compound 5f, N‐Hydroxy‐4‐(((4‐(6‐Methoxypyridin‐3‐yl)‐6‐Morpholino‐1,3,5‐Triazin‐2‐yl)Amino)Methyl)Benzamide], the remaining activity at 0.5 µM was 26.6% on HDAC3, 28.1% at HDAC10, 86.9% on PI3Kβ and 77.7% on PI3Kγ. The “Acetylated α‐tubulin level, western blot” value in assay [1] is on record as “accumulation of acetylated α‐tubulin”. For the same compound, the “Acetylation of H3, western blot” value with class I HDAC (acetyl H3) is “increased levels of acetylation of H3”.
